Measured values as given in ChEMBL document CHEMBL5678818, “Discovery of potent SOS1 inhibitors that block RAS activation via disruption of the RAS-SOS1 interaction” (Proc Natl Acad Sci U S A, 2019).

Experiments:
[1] = molecular target: Phosphatidylinositol 4-phosphate 5-kinase type-1 alpha (Homo sapiens) (UniProt Q99755); test: Inhibition of PIP5K1A (unknown origin) assessed as residual activity at 1000 nM by KINOMEscan analysis relative to control
[2] = molecular target: T1, Serine/threonine-protein kinase Nek1 (Homo sapiens) (UniProt Q96PY6); test: Inhibition of NEK1 (unknown origin) assessed as residual activity at 1000 nM by KINOMEscan analysis relative to control
T1 sequence (whole entry): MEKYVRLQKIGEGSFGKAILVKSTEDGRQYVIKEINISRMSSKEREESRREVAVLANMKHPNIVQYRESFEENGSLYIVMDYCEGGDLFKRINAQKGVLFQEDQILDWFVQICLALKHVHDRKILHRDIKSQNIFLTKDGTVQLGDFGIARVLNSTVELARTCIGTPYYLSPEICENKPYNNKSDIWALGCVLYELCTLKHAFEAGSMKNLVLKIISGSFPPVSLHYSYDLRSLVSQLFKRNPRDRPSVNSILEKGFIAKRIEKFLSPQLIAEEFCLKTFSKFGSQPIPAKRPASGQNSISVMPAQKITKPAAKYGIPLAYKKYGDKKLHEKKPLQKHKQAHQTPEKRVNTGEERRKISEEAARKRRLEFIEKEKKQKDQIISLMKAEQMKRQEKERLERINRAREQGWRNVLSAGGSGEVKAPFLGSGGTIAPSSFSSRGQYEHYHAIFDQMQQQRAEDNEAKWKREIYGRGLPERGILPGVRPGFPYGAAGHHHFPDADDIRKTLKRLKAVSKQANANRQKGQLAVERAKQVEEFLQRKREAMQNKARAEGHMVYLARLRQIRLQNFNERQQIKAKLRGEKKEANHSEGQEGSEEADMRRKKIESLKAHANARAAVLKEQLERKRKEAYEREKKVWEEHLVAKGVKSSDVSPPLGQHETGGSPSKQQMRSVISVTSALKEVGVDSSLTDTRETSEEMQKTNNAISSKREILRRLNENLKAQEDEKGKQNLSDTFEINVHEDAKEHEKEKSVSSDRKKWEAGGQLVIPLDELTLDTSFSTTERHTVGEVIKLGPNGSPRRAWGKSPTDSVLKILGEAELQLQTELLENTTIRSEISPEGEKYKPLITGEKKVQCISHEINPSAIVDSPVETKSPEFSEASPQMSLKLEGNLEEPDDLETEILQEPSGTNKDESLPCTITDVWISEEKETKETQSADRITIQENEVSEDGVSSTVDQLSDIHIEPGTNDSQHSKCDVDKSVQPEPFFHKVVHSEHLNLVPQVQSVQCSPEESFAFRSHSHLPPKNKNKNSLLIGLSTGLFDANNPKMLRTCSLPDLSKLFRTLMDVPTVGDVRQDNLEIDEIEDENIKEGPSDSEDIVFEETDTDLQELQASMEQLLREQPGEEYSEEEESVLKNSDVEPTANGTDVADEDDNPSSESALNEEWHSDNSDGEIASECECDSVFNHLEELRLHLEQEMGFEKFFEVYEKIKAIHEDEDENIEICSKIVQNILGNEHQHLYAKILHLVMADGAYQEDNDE

[3] = system: Epidermal growth factor receptor (Homo sapiens), P00533 [L858R]; test: Inhibition of EGFR L858R mutant (unknown origin) assessed as residual activity at 1000 nM by KINOMEscan analysis relative to control
[4] = molecular target: T2, Son of sevenless homolog 1 (Homo sapiens) (UniProt Q07889); test: Stabilization of N-terminal His10-tagged wild-type recombinant human SOS1 catalytic domain (564 to 1049 residues) expressed in Escherichia coli assessed as change in melting temperature at 100 uM with heating from 25 to 85 degreeC by thermal shift assay
T2 sequence (whole entry): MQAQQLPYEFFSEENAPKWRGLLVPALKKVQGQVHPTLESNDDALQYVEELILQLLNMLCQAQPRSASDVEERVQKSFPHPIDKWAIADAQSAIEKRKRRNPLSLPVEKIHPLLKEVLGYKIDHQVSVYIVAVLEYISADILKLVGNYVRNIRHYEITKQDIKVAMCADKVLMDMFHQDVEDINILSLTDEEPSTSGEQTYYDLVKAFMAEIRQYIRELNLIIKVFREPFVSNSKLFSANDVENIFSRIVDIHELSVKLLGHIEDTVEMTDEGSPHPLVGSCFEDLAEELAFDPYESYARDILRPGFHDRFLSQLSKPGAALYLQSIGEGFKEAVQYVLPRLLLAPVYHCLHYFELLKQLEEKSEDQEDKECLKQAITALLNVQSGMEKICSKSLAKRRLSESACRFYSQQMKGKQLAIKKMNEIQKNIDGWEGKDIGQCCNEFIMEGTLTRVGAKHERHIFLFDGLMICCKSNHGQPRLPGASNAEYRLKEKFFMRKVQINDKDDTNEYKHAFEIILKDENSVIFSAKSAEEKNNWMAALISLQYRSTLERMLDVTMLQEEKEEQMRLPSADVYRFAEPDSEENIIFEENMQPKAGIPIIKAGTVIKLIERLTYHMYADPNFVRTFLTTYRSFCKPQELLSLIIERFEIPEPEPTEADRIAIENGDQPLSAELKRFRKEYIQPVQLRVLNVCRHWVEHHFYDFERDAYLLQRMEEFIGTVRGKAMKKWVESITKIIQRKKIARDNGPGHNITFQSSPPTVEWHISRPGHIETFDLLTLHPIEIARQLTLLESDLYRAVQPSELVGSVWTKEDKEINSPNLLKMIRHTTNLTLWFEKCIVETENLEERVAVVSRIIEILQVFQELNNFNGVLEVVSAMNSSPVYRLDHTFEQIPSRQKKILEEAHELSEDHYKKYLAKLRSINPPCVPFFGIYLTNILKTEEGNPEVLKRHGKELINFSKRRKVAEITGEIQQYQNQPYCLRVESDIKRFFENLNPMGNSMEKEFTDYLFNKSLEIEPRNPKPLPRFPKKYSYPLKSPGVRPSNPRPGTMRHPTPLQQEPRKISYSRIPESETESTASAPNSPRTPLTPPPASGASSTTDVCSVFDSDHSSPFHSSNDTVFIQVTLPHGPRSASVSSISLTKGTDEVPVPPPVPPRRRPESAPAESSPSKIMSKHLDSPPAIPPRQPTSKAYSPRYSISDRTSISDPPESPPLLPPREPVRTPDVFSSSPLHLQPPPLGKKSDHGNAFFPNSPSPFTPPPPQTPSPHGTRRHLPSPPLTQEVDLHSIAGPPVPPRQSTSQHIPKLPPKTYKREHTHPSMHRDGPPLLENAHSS

Phosphatidylinositol 4-phosphate 5-kinase type-1 alpha (Homo sapiens), sequence (Q99755 whole entry): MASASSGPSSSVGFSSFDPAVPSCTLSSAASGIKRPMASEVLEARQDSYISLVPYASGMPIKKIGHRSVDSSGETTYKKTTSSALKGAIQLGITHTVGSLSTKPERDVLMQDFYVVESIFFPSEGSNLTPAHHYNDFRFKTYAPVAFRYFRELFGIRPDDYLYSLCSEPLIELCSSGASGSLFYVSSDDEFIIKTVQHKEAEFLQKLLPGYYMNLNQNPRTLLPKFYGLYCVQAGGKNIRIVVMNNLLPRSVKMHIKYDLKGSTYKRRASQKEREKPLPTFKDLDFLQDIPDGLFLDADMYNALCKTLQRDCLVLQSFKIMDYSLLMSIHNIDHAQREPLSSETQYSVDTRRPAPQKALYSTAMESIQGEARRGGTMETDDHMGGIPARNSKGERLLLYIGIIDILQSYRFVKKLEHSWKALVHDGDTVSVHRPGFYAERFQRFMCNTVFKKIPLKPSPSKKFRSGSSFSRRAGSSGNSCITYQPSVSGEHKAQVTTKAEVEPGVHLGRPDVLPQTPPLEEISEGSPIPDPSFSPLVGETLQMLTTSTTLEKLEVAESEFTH

Row | Structure (SMILES) | Activity [1] | Activity [2] | Activity [3] | ΔTm [4]
1 | COc1cc2ncnc(N[C@H](C)c3cccc4ccccc34)c2cc1OC | 90% | 96% | 1.7% | 2.5 °C
2 | CNCc1ccccc1-c1csc([C@@H](C)Nc2nc(C)nc3cc(OC)c(OC)cc23)c1 [BAY-293] |  |  |  | 3.17 °C
3 | COc1cc2nc(C)nc(N[C@H](C)c3cccc(-c4cn[nH]c4)c3)c2cc1OC | 93% | 100% | 100% | 
